According to PubChem BioAssay AID248 (DTP/NCI, 2004):
“And” between values parts separate entries of the source, which are not always exact repeats. Equal values may be shown once. Inconclusive results and toxic doses are left out.

System: L1210 leukemia ip in BDF1 mice, survival T/C
Test: NCI In Vivo Anticancer Drug Screen. Data for tumor model L1210 Leukemia (intraperitoneal) in B6D2F1 (BDF1) mice
Settings: endpoint: mean survival time, higher = longer survival
Method in brief: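 Ratio derived from survival: compound-dosed mice over vehicle-dosed mice, all bearing a transplantable tumor.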

[1] = dose: 100.0 mg/kg/injection, schedule: Q04DX003 (ip), vehicle: Klucel (hydroxypropylcellulose) (HPC)
[2] = dose: 200.0 mg/kg/injection, schedule: Q04DX003 (ip), vehicle: Klucel (hydroxypropylcellulose) (HPC)
[3] = dose: 400.0 mg/kg/injection, schedule: Q04DX003 (ip), vehicle: Klucel (hydroxypropylcellulose) (HPC)
[4] = dose: 12.5 mg/kg/injection, schedule: Q04DX002 (ip), vehicle: Klucel (hydroxypropylcellulose) (HPC)
[5] = dose: 100.0 mg/kg/injection, schedule: Q04DX002 (ip), vehicle: Klucel (hydroxypropylcellulose) (HPC)
[6] = dose: 200.0 mg/kg/injection, schedule: Q04DX002 (ip), vehicle: Klucel (hydroxypropylcellulose) (HPC)
[7] = dose: 400.0 mg/kg/injection, schedule: Q04DX002 (ip), vehicle: Klucel (hydroxypropylcellulose) (HPC)
[8] = dose: 100.0 mg/kg/injection, schedule: Q01DX009 (ip), vehicle: Klucel (hydroxypropylcellulose) (HPC)
[9] = dose: 100.0 mg/kg/injection, schedule: Q01DX009 (ip), vehicle: saline with Tween-80
[10] = dose: 200.0 mg/kg/injection, schedule: Q01DX009 (ip), vehicle: saline with Tween-80
[11] = dose: 200.0 mg/kg/injection, schedule: Q01DX009 (ip), vehicle: Klucel (hydroxypropylcellulose) (HPC)
[12] = dose: 400.0 mg/kg/injection, schedule: Q01DX009 (ip), vehicle: Klucel (hydroxypropylcellulose) (HPC)
[13] = dose: 100.0 mg/kg/injection, schedule: Q04DX003 (ip), vehicle: saline with Tween-80
[14] = dose: 200.0 mg/kg/injection, schedule: Q04DX003 (ip), vehicle: saline with Tween-80
[15] = dose: 400.0 mg/kg/injection, schedule: Q04DX003 (ip), vehicle: saline with Tween-80
[16] = dose: 100.0 mg/kg/injection, schedule: Q01DX001 (ip), vehicle: other
[17] = dose: 200.0 mg/kg/injection, schedule: Q01DX001 (ip), vehicle: other
[18] = dose: 400.0 mg/kg/injection, schedule: Q01DX001 (ip), vehicle: other
[19] = dose: 6.25 mg/kg/injection, schedule: Q04DX003 (ip), vehicle: Klucel (hydroxypropylcellulose) (HPC)
[20] = dose: 12.5 mg/kg/injection, schedule: Q04DX003 (ip), vehicle: Klucel (hydroxypropylcellulose) (HPC)

Compound: C#CCON(C(=O)Nc1ccc(Cl)cc1)C(=O)c1ccc(OC)cc1
- T/C [1]: 88 % of control
- T/C [2]: 86 % of control
- T/C [3]: 93 % of control

Compound: COc1ccccc1NC(=O)c1ccco1
- T/C [4]: 102 % of control
- T/C (dose: 25.0 mg/kg/injection, schedule: Q04DX002 (ip), vehicle: Klucel (hydroxypropylcellulose) (HPC)): 102 % of control
- T/C (dose: 50.0 mg/kg/injection, schedule: Q04DX002 (ip), vehicle: Klucel (hydroxypropylcellulose) (HPC)): 97 % of control
- T/C [5]: 95 % of control
- T/C [6]: 106 % of control
- T/C [7]: 103 % of control

Compound: Cc1cc(C)c(F)[c]([Hg][Br])c1N
- T/C (dose: 12.5 mg/kg/injection, schedule: Q01DX009 (ip), vehicle: Klucel (hydroxypropylcellulose) (HPC)): 96 % of control
- T/C (dose: 37.5 mg/kg/injection, schedule: Q01DX001 (ip), vehicle: Klucel (hydroxypropylcellulose) (HPC)): 94 % of control
- T/C (dose: 50.0 mg/kg/injection, schedule: Q01DX009 (ip), vehicle: Klucel (hydroxypropylcellulose) (HPC)): 96 % of control
- T/C [8]: 89 % of control

Compound: Nc1ccc(Cc2nc3ccccc3[nH]2)cc1
- T/C (dose: 100.0 mg/kg/injection, schedule: Q01DX001 (ip), vehicle: saline): 102 % of control
- T/C (dose: 200.0 mg/kg/injection, schedule: Q01DX001 (ip), vehicle: saline): 96 % of control
- T/C (dose: 400.0 mg/kg/injection, schedule: Q01DX001 (ip), vehicle: saline): 98 % of control

Compound: O=C(N/N=C/c1ccc(Cl)c([N+](=O)[O-])c1)C(O)(c1ccccc1)c1ccccc1
- T/C (dose: 100.0 mg/kg/injection, schedule: Q01DX001 (ip), vehicle: carboxymethylcellulose (CMC)): 103 % of control
- T/C (dose: 200.0 mg/kg/injection, schedule: Q01DX001 (ip), vehicle: carboxymethylcellulose (CMC)): 95 % of control
- T/C (dose: 400.0 mg/kg/injection, schedule: Q01DX001 (ip), vehicle: carboxymethylcellulose (CMC)): 101 % of control

Compound: CC1(C)C2CCC1(C)C(Oc1ccccc1)C2 (centres undefined)
- T/C [9]: 100 % of control
- T/C [10]: 98 % of control

Compound: C(=N\OCc1ccccc1)/c1ccccn1
- T/C [8]: 94 % of control
- T/C [1]: 96 % of control
- T/C [11]: 101 % of control
- T/C [2]: 97 % of control
- T/C [12]: 100 % of control
- T/C [3]: 103 % of control

Compound: CC1Oc2ccccc2OC1C(=O)NN (centres undefined)
- T/C [13]: 95 % of control
- T/C [14]: 97 % of control
- T/C [15]: 106 % of control

Compound: O=C(COc1ccc(Cl)c(Cl)c1)N(Cc1ccccc1)Cc1cccnc1
- T/C (dose: 100.0 mg/kg/injection, schedule: Q01DX001 (ip), vehicle: Klucel (hydroxypropylcellulose) (HPC)): 99 % of control
- T/C [8]: 98 % of control
- T/C [1]: 100 % of control
- T/C (dose: 200.0 mg/kg/injection, schedule: Q01DX001 (ip), vehicle: Klucel (hydroxypropylcellulose) (HPC)): 96 % of control
- T/C [11]: 116 % of control
- T/C [2]: 96 % of control
- T/C (dose: 400.0 mg/kg/injection, schedule: Q01DX001 (ip), vehicle: Klucel (hydroxypropylcellulose) (HPC)): 96 % of control
- T/C [12]: 100 % of control
- T/C [3]: 98 % of control

Compound: S=C(N/N=C/C=C/c1ccccc1)NC1CC2CC1C1C=CCC21 (centres undefined)
- T/C [8]: 94 % of control
- T/C [11]: 117 % of control
- T/C [12]: 88 % of control

Compound: ICc1ccnc2ccccc12
- T/C [16]: 100 % of control
- T/C [17]: 103 % of control
- T/C [18]: 100 % of control

Compound: CN1C2CCC1CC(=C(C#N)C(N)=O)C2
- T/C (dose: 3.13 mg/kg/injection, schedule: Q01DX009 (ip), vehicle: Klucel (hydroxypropylcellulose) (HPC)): 100 % of control
- T/C (dose: 3.13 mg/kg/injection, schedule: Q04DX003 (ip), vehicle: Klucel (hydroxypropylcellulose) (HPC)): 107 % of control
- T/C (dose: 6.25 mg/kg/injection, schedule: Q01DX009 (ip), vehicle: Klucel (hydroxypropylcellulose) (HPC)): 98 % of control
- T/C [19]: 102 % of control
- T/C [20]: 104 % of control and 88 % of control

Compound: Cc1cc(N(C)C)nc(N(C)C)n1
- T/C [16]: 93 % of control
- T/C (dose: 100.0 mg/kg/injection, schedule: Q04DX003 (ip), vehicle: other): 103 % of control
- T/C [17]: 101 % of control
- T/C (dose: 200.0 mg/kg/injection, schedule: Q04DX003 (ip), vehicle: other): 97 % of control
- T/C (dose: 250.0 mg/kg/injection, schedule: Q01DX Z (ip), vehicle: methylcellulose (MC)): 100 % of control
- T/C (dose: 375.0 mg/kg/injection, schedule: Q01DX Z (ip), vehicle: methylcellulose (MC)): 94 % of control
- T/C [18]: 91 % of control
- T/C (dose: 400.0 mg/kg/injection, schedule: Q04DX003 (ip), vehicle: other): 102 % of control
- T/C (dose: 500.0 mg/kg/injection, schedule: Q01DX Z (ip), vehicle: methylcellulose (MC)): 96 % of control

Compound: CN(N=O)C(=O)NCCCCNC(=O)N(C)N=O
- T/C (dose: 6.25 mg/kg/injection, schedule: Q01DX Z (ip), vehicle: carboxymethylcellulose (CMC)): 107 % of control
- T/C (dose: 12.5 mg/kg/injection, schedule: Q01DX Z (ip), vehicle: carboxymethylcellulose (CMC)): 112 % of control
- T/C (dose: 25.0 mg/kg/injection, schedule: Q01DX Z (ip), vehicle: carboxymethylcellulose (CMC)): 111 % of control
- T/C (dose: 50.0 mg/kg/injection, schedule: Q01DX Z (ip), vehicle: carboxymethylcellulose (CMC)): 108 % of control
- T/C (dose: 200.0 mg/kg/injection, schedule: Q01DX Z (ip), vehicle: carboxymethylcellulose (CMC)): 163 % of control

Compound: Cc1cccc(C[P+](C/C=C/c2ccccc2)(c2ccccc2)c2ccccc2)c1
- T/C [19]: 92 % of control
- T/C [20]: 92 % of control

Compound: O=c1[nH][nH]c2ccccc12
- T/C (dose: 31.2 mg/kg/injection, schedule: Q01DX Z (ip), vehicle: other): 88 % of control
- T/C (dose: 125.0 mg/kg/injection, schedule: Q01DX Z (ip), vehicle: other): 88 % of control
- T/C (dose: 250.0 mg/kg/injection, schedule: Q01DX Z (ip), vehicle: other): 92 % of control

Compound: CCCCCCCCCCCCCCC(F)C(=O)OCC1OC(CO)(OC2OC(CO)C(O)C(O)C2O)C(O)C1O (centres undefined)
- T/C (dose: 25.0 mg/kg/injection, schedule: Q01DX009 (ip), vehicle: saline with Tween-80): 98 % of control
- T/C (dose: 50.0 mg/kg/injection, schedule: Q01DX009 (ip), vehicle: saline with Tween-80): 100 % of control
- T/C [13]: 107 % of control

Compound: CC(=O)OCC(NC(=O)N(CCCl)N=O)C(OC(C)=O)C(OC(C)=O)C(COC(C)=O)OC(C)=O (centres undefined)
- T/C (dose: 9.0 mg/kg/injection, schedule: Q01DX001 (ip), vehicle: saline + alcohol): 266 % of control
- T/C (dose: 13.0 mg/kg/injection, schedule: Q01DX001 (ip), vehicle: saline + alcohol): 179 % of control
- T/C (dose: 20.0 mg/kg/injection, schedule: Q01DX001 (ip), vehicle: saline + alcohol): 282 % of control

Compound: Cn1c(N)nc2nc[nH]c2c1=O
- T/C (dose: 18.7 mg/kg/injection, schedule: Q01DX Z (ip), vehicle: methylcellulose (MC)): 95 % of control
- T/C (dose: 37.5 mg/kg/injection, schedule: Q01DX Z (ip), vehicle: methylcellulose (MC)): 89 % of control

Compound: Cc1ccc(C(C)(C)Cl)cc1O
- T/C [9]: 93 % of control
- T/C [13]: 96 % of control
- T/C [10]: 93 % of control
- T/C [14]: 102 % of control
- T/C (dose: 400.0 mg/kg/injection, schedule: Q01DX009 (ip), vehicle: saline with Tween-80): 98 % of control
- T/C [15]: 102 % of control

Compound: O=C1OCC/C1=C/c1cccc(O)c1
- T/C (dose: 3.12 mg/kg/injection, schedule: Q04DX002 (ip), vehicle: Klucel (hydroxypropylcellulose) (HPC)): 97 % of control
- T/C (dose: 6.25 mg/kg/injection, schedule: Q04DX002 (ip), vehicle: Klucel (hydroxypropylcellulose) (HPC)): 108 % of control
- T/C [4]: 101 % of control

Compound: O=C1OC(=O)C2C1C1CCC2(C2OCCO2)O1 (centres undefined)
- T/C [5]: 93 % of control
- T/C [6]: 101 % of control
- T/C [7]: 101 % of control
